Source: the NIST ThermoML archive (doi:10.1016/j.jct.2013.11.027)
± gives the expanded uncertainty stated by the source.

Legend:
[1] = 101.33 kPa, Liquid; for speed of sound: Sing-around technique in a fixed-path interferometer; for mass density: Vibrating tube method
[2] = refractive index (Na D-line) (dimensionless); details: 101.33 kPa, Liquid, Standard Abbe refractometry
[3] = xn = mol fraction of the nth substance listed; details: 101 kPa, Liquid, x2 = 0; for speed of sound: Sing-around technique in a fixed-path interferometer; for mass density: Vibrating tube method
[4] = refractive index (Na D-line) (dimensionless); xn = mol fraction of the nth substance listed; details: 101 kPa, Liquid, Standard Abbe refractometry, x2 = 0

| Compound | speed of sound ([1]; 293.15 K) [m/s] | mass density ([1]; 293.15 K) [kg/m3] | speed of sound ([1]; 298.15 K) [m/s] | mass density ([1]; 298.15 K) [kg/m3] | speed of sound ([1]; 303.15 K) [m/s] | mass density ([1]; 303.15 K) [kg/m3] | speed of sound ([1]; 308.15 K) [m/s] | mass density ([1]; 308.15 K) [kg/m3] | speed of sound ([1]; 313.15 K) [m/s] | mass density ([1]; 313.15 K) [kg/m3] | speed of sound ([1]; 318.15 K) [m/s] | mass density ([1]; 318.15 K) [kg/m3] | speed of sound ([1]; 323.15 K) [m/s] | mass density ([1]; 323.15 K) [kg/m3] | refractive index ([2]; 293.15 K) | refractive index ([2]; 298.15 K) | refractive index ([2]; 303.15 K) | refractive index ([2]; 308.15 K) | refractive index ([2]; 313.15 K) | refractive index ([2]; 318.15 K) | further results |
| --- | --- | --- | --- | --- | --- | --- | --- | --- | --- | --- | --- | --- | --- | --- | --- | --- | --- | --- | --- | --- | --- |
| C1COCCO1 [1,4-dioxane] | 1367.2 ± 1.2 | 1033.5 ± 0.12 | 1345 ± 1.2 | 1027.85 ± 0.12 | 1323 ± 1.2 | 1022.19 ± 0.12 | 1301.1 ± 1.2 | 1016.52 ± 0.12 | 1279.4 ± 1.2 | 1010.83 ± 0.12 | 1257.8 ± 1.2 | 1005.12 ± 0.12 | 1236.3 ± 1.2 | 999.4 ± 0.12 | 1.42215 ± 0.00037 | 1.41967 ± 0.00037 | 1.41725 ± 0.00037 | 1.4148 ± 0.00037 | 1.41236 ± 0.00037 | 1.40993 ± 0.00037 | refractive index ([2]; 323.15 K): 1.40749 ± 0.00037 |
| C1COCCO1 [1,4-dioxane] + CCCCCCCC[n+]1ccn(C)c1.F[B-](F)(F)F |  |  |  |  |  |  |  |  |  |  |  |  |  |  |  |  |  |  |  |  | speed of sound ([3]; 298.15 K): 1345 ± 1.2 m/s; mass density ([3]; 298.15 K): 1027.85 ± 0.12 kg/m3; speed of sound ([3]; 308.15 K): 1301.1 ± 1.2 m/s; mass density ([3]; 308.15 K): 1016.52 ± 0.12 kg/m3; speed of sound ([3]; 318.15 K): 1257.8 ± 1.2 m/s; mass density ([3]; 318.15 K): 1005.12 ± 0.12 kg/m3; refractive index ([4]; 298.15 K): 1.41967 ± 0.00037; refractive index ([4]; 308.15 K): 1.4148 ± 0.00037; refractive index ([4]; 318.15 K): 1.40993 ± 0.00037 |
| C1COCCO1 [1,4-dioxane] + CCCCCCn1cc[n+](C)c1.F[B-](F)(F)F |  |  |  |  |  |  |  |  |  |  |  |  |  |  |  |  |  |  |  |  | speed of sound ([3]; 298.15 K): 1345 ± 1.2 m/s; mass density ([3]; 298.15 K): 1027.85 ± 0.12 kg/m3; speed of sound ([3]; 308.15 K): 1301.1 ± 1.2 m/s; mass density ([3]; 308.15 K): 1016.52 ± 0.12 kg/m3; speed of sound ([3]; 318.15 K): 1257.8 ± 1.2 m/s; mass density ([3]; 318.15 K): 1005.12 ± 0.12 kg/m3; refractive index ([4]; 298.15 K): 1.41967 ± 0.00037; refractive index ([4]; 308.15 K): 1.4148 ± 0.00037; refractive index ([4]; 318.15 K): 1.40993 ± 0.00037 |
| CCCCCCn1cc[n+](C)c1.F[B-](F)(F)F [1-hexyl-3-methylimidazolium tetrafluoroborate] | 1509.3 ± 2.3 | 1148.76 ± 1.1 | 1496.7 ± 2.3 | 1145.11 ± 1.1 | 1484.3 ± 2.3 | 1141.47 ± 1.1 | 1472 ± 2.3 | 1137.71 ± 1.1 | 1459.8 ± 2.3 | 1134.09 ± 1.1 | 1447.7 ± 2.3 | 1130.49 ± 1.1 | 1435.7 ± 2.3 | 1126.89 ± 1.1 | 1.43308 ± 0.00053 | 1.43167 ± 0.00053 | 1.43029 ± 0.00053 | 1.4289 ± 0.00053 | 1.42752 ± 0.00053 | 1.42612 ± 0.00053 | refractive index ([2]; 323.15 K): 1.42474 ± 0.00053 |
